Data taken from ChEMBL document CHEMBL1671724, “IncI1 plasmid carrying extended-spectrum-beta-lactamase gene blaCTX-M-1 in Salmonella enterica isolates from poultry and humans in France, 2003 to 2008” (2010).
In brackets after ≈: the same amount, converted by molar mass.

How the values were obtained:
Escherichia coli [1] = experiment: Antimicrobial activity against Escherichia coli 03-8748TC1 transconjugant expressing IncI1 plasmid-encoded beta lactamase CTX-M-1 by Etest; type: functional
[2] = Antimicrobial activity against Salmonella 4,5,12:i:- 08-2712 by Etest; type: functional, Salmonella enterica subsp. enterica serovar 4,[5],12:i:-; conditions: Salmonella enterica
[3] = Antimicrobial activity against Salmonella Newport 03-8748 by Etest; type: functional, Salmonella enterica subsp. enterica serovar Newport; conditions: Salmonella enterica
Escherichia coli [4] = experiment: Antimicrobial activity against Escherichia coli 05-9280TC1 transconjugant expressing IncI1 plasmid-encoded beta lactamase CTX-M-1 by Etest; type: functional
Escherichia coli [5] = experiment: Antimicrobial activity against Escherichia coli 08-1537TC1 transconjugant expressing IncI1 plasmid-encoded beta lactamase CTX-M-1 by Etest
Escherichia coli [6] = experiment: Antimicrobial activity against Escherichia coli 06CEB6542SALTC1 transconjugant expressing IncI1 plasmid-encoded beta lactamase CTX-M-1 by Etest; type: functional
Salmonella typhimurium [7] = experiment: Antimicrobial activity against Salmonella Typhimurium 08-1537 by Etest; type: functional, Salmonella enterica subsp. enterica serovar Typhimurium; conditions: Salmonella enterica
Escherichia coli [8] = experiment: Antimicrobial activity against Escherichia coli 07-819TC1 transconjugant expressing IncI1 plasmid-encoded beta lactamase CTX-M-1 by Etest; type: functional
Salmonella typhimurium [9] = experiment: Antimicrobial activity against Salmonella Typhimurium 08-843 by Etest; type: functional, Salmonella enterica subsp. enterica serovar Typhimurium; conditions: Salmonella enterica
Salmonella typhimurium [10] = experiment: Antimicrobial activity against Salmonella Typhimurium 08-2211 by Etest; type: functional, Salmonella enterica subsp. enterica serovar Typhimurium; conditions: Salmonella enterica
Escherichia coli [11] = experiment: Antimicrobial activity against Escherichia coli 08-2712TC1 transconjugant expressing IncI1 plasmid-encoded beta lactamase CTX-M-1 by Etest
Salmonella typhimurium [12] = experiment: Antimicrobial activity against Salmonella Typhimurium 08-1745 by Etest; type: functional, Salmonella enterica subsp. enterica serovar Typhimurium; conditions: Salmonella enterica
[13] = Antimicrobial activity against Salmonella London 07-819 by Etest; type: functional, Salmonella enterica subsp. enterica serovar London; conditions: Salmonella enterica
Escherichia coli [14] = experiment: Antimicrobial activity against Escherichia coli 08-843TC1 transconjugant expressing IncI1 plasmid-encoded beta lactamase CTX-M-1 by Etest; type: functional
Escherichia coli [15] = experiment: Antimicrobial activity against Escherichia coli 06-6550TC1 transconjugant expressing IncI1 plasmid-encoded beta lactamase CTX-M-1 by Etest; type: functional
Salmonella = experiment: Antimicrobial activity against Salmonella Llandoff 06CEB6542SAL by Etest; type: functional
Salmonella typhimurium [16] = experiment: Antimicrobial activity against Salmonella Typhimurium 06-6550 by Etest; type: functional, Salmonella enterica subsp. enterica serovar Typhimurium; conditions: Salmonella enterica
Salmonella typhimurium [17] = experiment: Antimicrobial activity against Salmonella Typhimurium 05-9280 by Etest; type: functional, Salmonella enterica subsp. enterica serovar Typhimurium; conditions: Salmonella enterica

SMILES | MIC (Escherichia coli [1]) | MIC [2] | MIC [3] | MIC (Escherichia coli [4]) | MIC (Escherichia coli [5]) | MIC (Escherichia coli [6]) | MIC (Salmonella typhimurium [7]) | MIC (Escherichia coli [8]) | MIC (Salmonella typhimurium [9]) | MIC (Salmonella typhimurium [10]) | MIC (Escherichia coli [11]) | MIC (Salmonella typhimurium [12]) | MIC [13] | MIC (Escherichia coli [14]) | MIC (Escherichia coli [15]) | MIC (Salmonella) | MIC (Salmonella typhimurium [16]) | MIC (Salmonella typhimurium [17])
CC(C)(O/N=C(\C(=O)N[C@@H]1C(=O)N2C(C(=O)[O-])=C(C[n+]3ccccc3)CS[C@H]12)c1csc(N)n1)C(=O)O [CEFTAZIDIME] | 256 µg/mL (≈ 468 µM) | 256 µg/mL (≈ 468 µM) | > 256 µg/mL | > 256 µg/mL | 128 µg/mL (≈ 234 µM) | 8 µg/mL | > 256 µg/mL | 256 µg/mL (≈ 468 µM) | 256 µg/mL (≈ 468 µM) | 256 µg/mL (≈ 468 µM) | 64 µg/mL (≈ 117 µM) | > 256 µg/mL | > 256 µg/mL | 256 µg/mL (≈ 468 µM) | 64 µg/mL (≈ 117 µM) | 64 µg/mL (≈ 117 µM) | 256 µg/mL (≈ 468 µM) | > 256 µg/mL
CO/N=C(\C(=O)N[C@@H]1C(=O)N2C(C(=O)O)=C(CSc3nc(=O)c(O)nn3C)CS[C@H]12)c1csc(N)n1 [CEFTRIAXONE] | 2 µg/mL (≈ 3.61 µM) | 16 µg/mL (≈ 28.9 µM) | 8 µg/mL (≈ 14.4 µM) | 32 µg/mL (≈ 57.7 µM) | 8 µg/mL (≈ 14.4 µM) | 0.5 µg/mL | 64 µg/mL (≈ 115 µM) | 4 µg/mL (≈ 7.21 µM) | 16 µg/mL (≈ 28.9 µM) | 8 µg/mL (≈ 14.4 µM) | 8 µg/mL (≈ 14.4 µM) | 16 µg/mL (≈ 28.9 µM) | 8 µg/mL (≈ 14.4 µM) | 8 µg/mL (≈ 14.4 µM) | 4 µg/mL (≈ 7.21 µM) | 4 µg/mL (≈ 7.21 µM) | 16 µg/mL (≈ 28.9 µM) | 32 µg/mL (≈ 57.7 µM)
